Series [1] is described as follows: Kinetic studies on the PFAA-Staudinger ligation with 1 by 1H NMR spectroscopy. As to conditions: reaction with 1, DMSO-d6, 2.5 mM, 25 °C. How it is done: The kinetics of the Staudinger ligation between 1 and 2a–2c (Scheme 1) were monitored by ^1H NMR spectroscopy, following spectral changes over time.
The kinetic experiments were carried out following a published protocol (Sundhoro et al. [2017]). […] Kinetic models were evaluated by non-linear fitting corresponding to first- and second-order rate laws in Prism 10 (GraphPad, San Diego, CA, USA) as expected for the Staudinger ligation. Fitting was carried out using kinetic models based on reagent decomposition (A) or product formation (P) as shown in the equations below, depending on signal clarity and the magnitude of ^1H NMR spectral changes over time:where [A] = concentration of reactant A at time t, [A]₀ = initial concentration of reactant A (at t = 0), [P] = concentration of product P at time t, [P]₀ = maximum possible product concentration, k = rate constant and t = time elapsed.

A short description of series [2]: Stability of 2c under simulated radiolabeling conditions (HPLC). As to conditions: 60 nmol AlCl3, 1:1 0.17 M NaOAc (pH 4.5):EtOH, 30 min. It is filed as physicochemical. The procedure: The analysis was carried out using a pentafluorophenyl (PFP) column (Kinetex 2.6 µm PFP 100 Å, LC Column 150 × 4.6 mm from Phenomenex, Torrance, CA, USA) and HPLC methods A and B (see SI). The Al^19F-complexes were isolated and analyzed using NMR and/or HRMS. The stability of 2c was also tested in the presence of 60 nmol AlCl3 in 1:1 (v/v) 0.17 M NaOAC (pH 4.5):EtOH, simulating the radiolabeling conditions.

The conditions of series [3]: cited from earlier work.
The test system of series [4] is Jurkat cells. Description: Cell viability during flow cytometry workflow (automatic cell counter / 7-AAD). Format: cell-based, Human. How it is done:
(§1) After incubation, the cells for each condition were combined and washed twice with 5 mL of 1 × Dulbecco's phosphate-buffered saline (DPBS). The cell number and viability were determined using EVE™ automatic cell counter (NanoEnTek, Seoul, Korea). 1 × 10^6 cells were resuspended in 500 µL of a freshly prepared 1 × DPBS (pH 7.4) or 1 µM of phosphine-PEG3-biotin (Thermo Fisher Scientific, Waltham, MA, USA) in 1 × DPBS (n = 3), then transferred to 1.5-mL microtubes, and incubated at ambient temperature for 60 min on a rotating platform. Then, cells are washed twice with 1 × DPBS, resuspended in 100 µL of a freshly prepared solution of 1:200 streptavidin-fluorescein isothiocyanate (FITC) (0.1 μg, Thermo Fisher Scientific, Waltham, MA, USA) in 1 × DPBS, and incubated for 15 min in the dark on ice with mixing once manually in between. After the incubation, 400 µL of FACS (fluorescence-activated cell sorting) buffer (2% FBS in DPBS) was added followed by two washings with 500 µL of FACS buffer. During the washing step, the samples were centrifuged at 4 °C, […] for 5 min, the supernatant was removed, and the cells were resuspended in fresh buffer, followed by centrifugation. Lastly, cells were resuspended in 500 µL of FACS buffer and transferred to FACS tubes equipped with a 35 µm cell strainer cap. Dead and apoptotic cells were stained by adding 5 µL of 7-aminoactinomycin D (7-AAD) staining solution and incubating for 10 min at ambient temperature in the dark, followed by flow cytometry analysis using LSR Fortessa (BD Biosciences, Franklin Lake, NJ, USA). Unstained samples, samples stained only with streptavidin-FITC, and only with 7-AAD were used as controls. Data were analyzed using FlowJo software (FlowJo LLC, Ashland, OR, United States).
(In general: Flow cytometry measures light scatter and fluorescence of single cells or particles in a stream.)

In series [5] the test system is Jurkat cells. Nature of the series: Flow cytometry of metabolic glycoengineering (phosphine-PEG3-biotin, streptavidin-FITC). It is filed as cell-based, Human. As to conditions: 50 µM, 72 h, then 1 µM phosphine-PEG3-biotin. The procedure: Jurkat cells (5 × 10^5 cells in 1.5-mL complete medium per well) were seeded in a non-treated flat-bottom polystyrene 6-well plate (Avantor, Radnor, PA, USA) and incubated in triplicates (n = 3) with 50 μM of 1, 50 μM of Ac4ManNAz (Lumiprobe, Westminster, MD, USA) or 0.5% (v/v) DMSO in complete medium for 72 h in a cell incubator set at 37 °C with 5% CO2 and 95% relative humidity. After incubation, the cells for each condition were combined and washed twice with 5 mL of 1 × Dulbecco's phosphate-buffered saline (DPBS). The cell number and viability were determined using EVE™ automatic cell counter (NanoEnTek, Seoul, Korea). 1 × 10^6 cells were resuspended in 500 µL of a freshly prepared 1 × DPBS (pH 7.4) or 1 µM of phosphine-PEG3-biotin (Thermo Fisher Scientific, Waltham, MA, USA) in 1 × DPBS (n = 3), then transferred to 1.5-mL microtubes, and incubated at ambient temperature for 60 min on a rotating platform. […] After the incubation, 400 µL of FACS (fluorescence-activated cell sorting) buffer (2% FBS in DPBS) was added followed by two washings with 500 µL of FACS buffer. […] Data were analyzed using FlowJo software (FlowJo LLC, Ashland, OR, United States).

Series [6] can be described thus: Cell viability during flow cytometry workflow (automatic cell counter / 7-AAD). Format: cell-based, Human. As to conditions: human, Jurkat cells, 50 µM, 72 h. The procedure:
as §1

Series [7] is described as follows: CyQUANT LDH Cytotoxicity Assay. Format: cell-based. Particulars: human, Jurkat T lymphoblasts (Clone E6-1), read-out: cell viability. How it is done:
The in vitro cytotoxicity of 1 was assessed using the CyQUANT™ LDH Cytotoxicity Assay (Invitrogen, Waltham, MA, USA), which quantifies membrane damage via extracellular lactate dehydrogenase (LDH) release. Assay reagents (Lysis Buffer, Reaction Mixture, and Stop Solution) were prepared according to the manufacturer’s protocol. Human Jurkat T lymphoblasts (Clone E6-1, ATCC TIB-152™, Manassas, VA, USA) were suspended in complete medium and mixed (1:1) with 1 in complete medium to obtain final concentrations of 10, 20, 50, 125, and 250 μM containing 0.5% v/v DMSO vehicle. Positive control for cytotoxicity (maximum LDH; cells lysed with 10 × Lysis Buffer at 1:10 v/v, prepared before each time point), negative control for cytotoxicity (spontaneous LDH; 0.5% v/v DMSO in complete medium), and complete-medium and serum-free medium blanks (background) were included. Sample-containing and control cell suspensions were plates at a density of 14,000 cells per well in 280 μL on an opaque-walled, clear-bottom 96-well plate. Plates were incubated at 37 °C, 5% CO2 in a humidified incubator for 24, 48, and 72 h. All conditions were run in quadruplicate (n = 4). […] Absorbance was measured at 490 and 680 nm on a Synergy H1 multimode microplate reader (BioTek, Winooski, VT, USA). LDH signal was calculated as Abs490 – Abs680 (background-corrected).
% Cytotoxicity was determined as:

Where two headings read alike, the source gives them in different places. A value given as a limit tells only on which side of the number the result lay.

With `O=C(O)CN(CC(=O)O)CC(CCNC(=O)Cc1ccc(CN(CC(=O)O)[C@@H]2CCCC[C@H]2N(CC(=O)O)CC(=O)O)cc1)OC(=O)c1ccccc1P(c1ccccc1)c1ccccc1` (stereo partly drawn) [2a], in series [1], the “second-order rate constant of PFAA-Staudinger ligation” value was 4.246 × 10^–4 M⁻1 s⁻1.
Consider `O=C(O)CN(CC(=O)O)[C@@H]1CCCC[C@H]1N(CC(=O)O)Cc1ccc(CC(=O)NCCNC(=O)c2ccccc2P(c2ccccc2)c2ccccc2)cc1` [2b], for which, in series [1], the “first-order rate constant of PFAA-Staudinger ligation” value is on record as 5.434 × 10^–3 s⁻1.
As to `O=C(O)CN(CC(=O)O)C1CCCCC1N(CC(=O)O)Cc1ccc(CC(=O)NC2CCC(CNC(=O)c3ccccc3P(c3ccccc3)c3ccccc3)CC2)cc1` (stereo not drawn) [2c], the “second-order rate constant of PFAA-Staudinger ligation” value in series [1] is 4.071 × 10^–4 M⁻1 s⁻1. Also, the “stability under radiolabeling conditions without radioactivity (HPLC)” value in series [2] is “negligible change”.
`SCP(c1ccccc1)c1ccccc1` [(diphenylphosphino)methanethiol]: in series [3] (DMF:D2O (6:1) ref Soellner et al. [2006]), the “second-order rate constant, traceless Staudinger ligation” value was 7.7 × 10^–3 M^−1 s^−1.
`CC(=O)OC[C@H]1OC(OC(C)=O)[C@@H](NC(=O)CN=[N+]=[N-])[C@@H](OC(C)=O)[C@@H]1OC(C)=O` (stereo partly drawn) [Ac4ManNAz, Tetra-acetylated N-azidoacetylmannosamine, reference compound]: the “cell viability after 72 h of incubation” value with Jurkat cells [4] (50 µM, 72 h) is listed as 96%. Further, the “cell viability at the time of analysis” value with Jurkat cells [4] (50 µM, 72 h, after ligation and staining) is recorded as 79–82%. Moreover, the “fluorescent labeling with streptavidin-FITC” value in the series with Jurkat cells [5] is on record as “observed”.
Turning to `[N-]=[N+]=NCc1ccccc1` [benzyl azide], in series [3] (ACN:H2O (19:1) ref Lin et al. [2005]), the “second-order rate constant, non-traceless Staudinger ligation” value is 2.5 × 10^–3 M^−1 s^−1.
As for `CC(=O)OCC1OC(OC(C)=O)C(NC(=O)c2c(F)c(F)c(N=[N+]=[N-])c(F)c2F)C(OC(C)=O)C1OC(C)=O` (stereo not drawn) [compound 1, tetra-acetylated PFAA-derivatized mannosamine], the cell viability entry in the series with Jurkat cells [4] (100 µM, 72 h of incubation) was “reduced cell viability”. Moreover, the viability (in general, the share of living cells, or the viability signal relative to a control) at 72 h, 50 µM in series [6] (after ligation and staining, read-out: cell viability at the time of analysis) is 77 to 80%; in series [6] (read-out: cell viability after 72 h of incubation), 91%. The viability in series [7] (concentrations up to 50 μM, 24, 48 and 72 h) was over 80%. In series [7] (≥ 125 μM, after 24 and 72 h of incubation), the viability at 125 µM was under 80%. The “fluorescent labeling with streptavidin-FITC” value in the series on Jurkat cells [5] is “minimal/no signal”.

The values above are taken from PMC12705485, “Aluminum-[^18F]fluoride radiolabeling of triarylphosphines for cell labeling via the perfluoroaryl azide Staudinger ligation” (EJNMMI Radiopharmacy and Chemistry, 2025).
